Experimental data taken from ChEMBL document CHEMBL1201862, “PubChem BioAssay data set” (2004).
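Five compound concentrations were applied to cells in 96-well plates for 48 hours; endpoints were derived by simple linear interpolation of the resulting dose-response curve. GI50 marks 50% less growth.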 The source made the active and inactive calls. No stated cut-off is given here; in the data, active = GI50 up to about 1.1 µM and inactive = higher.

Columns and labels:
Assay in all cases: NCI-60 cell line screen, 48 h
SK-MEL-2 = test system: SK-MEL-2
NCI-H226 = test system: NCI-H226
NCI-H23 = test system: NCI-H23
ACHN = test system: ACHN
U-251 = test system: U-251
NCI-H460 = test system: NCI-H460
786-0 = test system: 786-0
NCI-H522 = test system: NCI-H522
SN12C = test system: SN12C
HOP-62 = test system: HOP-62
SF-295 = test system: SF-295
SF-268 = test system: SF-268
UO-31 = test system: UO-31
IGROV-1 = test system: IGROV-1
HOP-92 = test system: HOP-92
TK-10 = test system: TK-10
MCF7 = test system: MCF7
CAKI-1 = test system: CAKI-1
HCT-116 = test system: HCT-116
MOLT-4 = test system: MOLT-4

Measured: GI50

CSC(=S)OC1CC(n2cnc3c(NC(=O)c4ccccc4)ncnc32)OC1CO[Si](C)(C)C(C)(C)C (stereo not given)
inactive: SK-MEL-2 16.2 µM | NCI-H226 14.2 µM | NCI-H23 13.2 µM | ACHN 13.8 µM | U-251 7.41 µM | NCI-H460 11.1 µM | 786-0 13.6 µM | NCI-H522 7.18 µM | SN12C 14.4 µM | HOP-62 28.6 µM | SF-295 9.82 µM | SF-268 30.7 µM | UO-31 4.4 µM | IGROV-1 27.2 µM | HOP-92 13.9 µM | TK-10 35.6 µM | MCF7 8.05 µM | CAKI-1 > 46.5 µM | HCT-116 7.82 µM | MOLT-4 2.03 µM

C/C(=C/CO[Si](C)(C)C(C)(C)C)C(=O)N(C)c1ccccc1I
inactive: SK-MEL-2 15.7 µM | NCI-H226 16.4 µM | NCI-H23 22 µM | ACHN 17.3 µM | U-251 15.3 µM | NCI-H460 14.7 µM | 786-0 17.1 µM | NCI-H522 15.6 µM | SN12C 17.2 µM | HOP-62 18.4 µM | SF-295 16.5 µM | SF-268 17.5 µM | UO-31 14.8 µM | IGROV-1 16 µM | HOP-92 10.5 µM | TK-10 18.7 µM | MCF7 16.9 µM | CAKI-1 15.6 µM | HCT-116 13 µM | MOLT-4 18.2 µM

CC(C)NC(=O)OCc1c(COC(=O)NC(C)C)n(C)c2c1ccc1sccc12
inactive: SK-MEL-2 16.4 µM | NCI-H226 2.67 µM | NCI-H23 7.4 µM | ACHN 7 µM | U-251 20.7 µM | NCI-H460 5.33 µM | 786-0 6.35 µM | NCI-H522 3.65 µM | SN12C 15.9 µM | HOP-62 20.9 µM | SF-295 10 µM | SF-268 6.18 µM | UO-31 9.14 µM | IGROV-1 3.02 µM | HOP-92 4.9 µM | TK-10 18.6 µM | MCF7 13.5 µM | CAKI-1 4.8 µM | HCT-116 11.1 µM | MOLT-4 10.3 µM
